A short description of assay [1]: 1H NMR titration with TBA nitrate in 10% DMSO-d6/CDCl3. The format is binding. Particulars: 10% DMSO-d6/CDCl3, from Ka values. From the text: (§1) To simplify the mode of binding in these receptors, as well as to lower the association constant of nitrate and bromide to a measurable amount, other solvent systems were investigated. Low solubility of the tripodal receptors limited the solvent possibilities. We also aimed to maintain competition between binding of the anion and solvent molecules to provide further evidence for the strong binding of nitrate in competitive solvents, a critical feature for applications in environmental monitoring. […] In addition, DMSO is a strong hydrogen bond acceptor, thus a lower association constant would be expected. Initial upfield shifts, followed by downfield shifts of the urea protons were observed upon the addition of TBANO3 1 mM solutions of 1 in 2% DMSO-d6/CDCl3 and 5% DMSO-d6/CDCl3. […]
(§2) Titrations in 10% DMSO-d6/CDCl3 were performed at a constant 1 mM concentration of 1. The change in chemical shift was monitored throughout the titration and fit to a 1:1 model using linear regression analysis. […] The binding constants of each anion investigated and the calculated total Δδ values based on the determined constant are presented in Table 2. […]
Similar to 1, host:guest complexes of 2 were investigated through 1H NMR spectroscopy titrations in 10% DMSO-d6/CDCl3. […] The urea protons (H^a and H^b), nitrophenyl protons (H^c and H^d), and core proton (H^core) were monitored throughout the titrations. […]

The nature of assay [2]: 1H NMR titration with TBA bromide in 10% DMSO-d6/CDCl3. The format is binding. The conditions noted are these: Br^− (TBA salt), 10% DMSO-d6/CDCl3, 1 mM receptor, 1:1 model.
Excerpt: as §1, with “DMSO-d6/CDCl3. The titration curves indicate a more complicated system than a 1:1 model; however, the data still could not be fit to a standard model.” for “DMSO-d6/CDCl3.”
as §2

The nature of assay [3]: 1H NMR titration with TBA iodide in 10% DMSO-d6/CDCl3. The format is binding. Particulars: I^− (TBA salt), 10% DMSO-d6/CDCl3, 1 mM receptor, 1:1 model.
Excerpt: as §1, with “DMSO-d6/CDCl3. The titration curves indicate a more complicated system than a 1:1 model; however, the data still could not be fit to a standard model.” for “DMSO-d6/CDCl3.”
as §2

Assay [4] in a line: 1H NMR titration with TBA chloride in acetone-d6. Format: binding. The conditions noted are these: Cl^− (TBA salt), acetone-d6, 0.5 mM receptor. On the procedure:
(§3) Interaction of 1 with anions in solution was investigated by 1H NMR spectroscopy. Initial titration experiments were performed at 0.5 mM of 1 in acetone-d6 due to its limited solubility in other solvents, despite the potential solvent competition as a hydrogen bond acceptor. […] Changes in chemical shifts of H^c and H^d were also observed, but to a lesser extent, with H^d moving upfield. Large downfield shifts of the urea protons indicate hydrogen bonds of the ureas to the anion as the main mode of binding. Change in chemical shift corresponding to the addition of NO3^− or Br^− begins to maximize at approximately 0.5 equiv. of guest, indicating a possible 2:1 binding model in acetone.

A short description of assay [5]: 1H NMR titration with TBA bromide in acetone-d6. The conditions noted are these: Br^−, acetone-d6, 0.5 mM receptor; lower limit inferred from sharp binding curve, no reproducible fit. As for the experimental part:
as §3

Where only a bound is given, the exact number is not on record here.

Regarding `CC(C)(C)c1ccc(NC(=O)Nc2ccc([N+](=O)[O-])cc2)c(C#Cc2cc(C#Cc3cc(C(C)(C)C)ccc3NC(=O)Nc3ccc([N+](=O)[O-])cc3)cc(C#Cc3cc(C(C)(C)C)ccc3NC(=O)Nc3ccc([N+](=O)[O-])cc3)c2)c1` [compound 2], the “selectivity for nitrate over chloride” value in assay [1] is recorded as “loss in selectivity for NO3^− over Cl^−”.
For the compound `CC(C)(C)c1ccc(NC(=O)Nc2ccc([N+](=O)[O-])cc2)c(C#Cc2c(F)c(C#Cc3cc(C(C)(C)C)ccc3NC(=O)Nc3ccc([N+](=O)[O-])cc3)c(F)c(C#Cc3cc(C(C)(C)C)ccc3NC(=O)Nc3ccc([N+](=O)[O-])cc3)c2F)c1` [compound 1], the “selectivity for nitrate over chloride” value in assay [1] was “moderate selectivity for nitrate”. Further, the “Association constant Ka” value in assay [2] was 8320 (876) M^−1; in assay [3] it was 755 (85) M^−1. In addition, the “1:1 binding constant” value in assay [4] was 8620 ± 1170 M⁻¹. In assay [5], the Ka was above 104 M⁻¹.

The values above are taken from patent publication US10060892B2, “Tripodal nitrate receptor” (University of Oregon, priority 2013, dated 2018).
